We go through three compounds from US20110295343A1, “NEAR-INFRARED ELECTROMAGNETIC MODIFICATION OF CELLULAR STEADY-STATE MEMBRANE POTENTIALS” (priority 2008, published 2011).

The subject of experiment [1] is C. albicans. Nature of the experiment: Colony counts of C. albicans plated with Lamisil or Sporanox after sub-lethal NIMELS laser (Example XIII). In kind it is cell-based, Candida albicans. As to conditions: for C. albicans Colony Counts, Control: no laser, group AF8, replicates 1-5; for C. albicans Colony Counts, Experimental: sub-lethal NIMELS laser (AF-8 dosimetry), replicates 1-5. Here is the method: Similar cell culture and kinetic protocols were performed for all NIMELS irradiation with E. coli and C. albicans in vitro tests. […] A standardized suspension was aliquoted into selected wells in a 24-well tissue culture plate. Following laser treatments, 100 μL was removed from each well and serially diluted to 1:1000 resulting in a final dilution of 1:5×10^6 of initial culture. An aliquot of each final dilution were spread onto separate plates. The plates were then incubated at 37° C. for approximately 16-20 hours. Manual colony counts were performed and recorded.
The null hypothesis is μ1−μ2=0 and μ1−μ3=0 where: a) μ1 is sub-lethal dosimetry ftom the NIMEL laser system on C. albicans as a control and; b) μ2 is the same sub-lethal dosimetry from the NTMEL laser system on C. albicans with the addition of Sporanos at resistant MIC just below effectiveness level and; c) μ3 is the same sub-lethal dosimetry from the NIMEL laser system on C. albicans with the addition of Lamisil at resistant MIC just below effectiveness level.

For experiment [2], the system named is S. aureus. The settings on record: cited from earlier work.

Several values for one entry are separate records, joined by “and”; a condition that tells them apart may be missing. Equal values may be shown once. Read-outs that look alike come from different tables or passages of the source.

Consider `CN(C/C=C/C#CC(C)(C)C)Cc1cccc2ccccc12` [Lamisil, terbinafine], for which the “effect of sub-lethal NIMELS irradiation on antifungal action against C. albicans colonies” value in experiment [1] (0.5 ug/ml) is reported as “potentiated by a sub-lethal dosimetry irradiation”. For the same compound, in experiment [1] (Lamisil 0.5 ug/ml), the “C. albicans Colony Counts, Control” value was 290 and 335 and 334 and 280; the “C. albicans Colony Counts, Experimental” value was 101 and 70 and 90 and 78 and 74.
Take `CCC(C)n1ncn(-c2ccc(N3CCN(c4ccc(OCC5COC(Cn6cncn6)(c6ccc(Cl)cc6Cl)O5)cc4)CC3)cc2)c1=O` (stereo not shown) [Sporanox, itraconazole]: in experiment [1] (Sporanox 0.5 ug/ml), the “C. albicans Colony Counts, Control” value was 360 and 332 and 320 and 311 and 295; the “C. albicans Colony Counts, Experimental” value is 110 and 86 and 91 and 80 and 107.
As for `CCCCCCCCCC(=O)N[C@@H](Cc1c[nH]c2ccccc12)C(=O)N[C@H](CC(N)=O)C(=O)N[C@@H](CC(=O)O)C(=O)N[C@@H]1C(=O)NCC(=O)N[C@@H](CCCN)C(=O)N[C@@H](CC(=O)O)C(=O)N[C@H](C)C(=O)N[C@@H](CC(=O)O)C(=O)NCC(=O)N[C@H](CO)C(=O)N[C@@H]([C@H](C)CC(=O)O)C(=O)N[C@@H](CC(=O)c2ccccc2N)C(=O)O[C@@H]1C` [daptomycin], the “daptomycin concentration to achieve a 3-log reduction” value in experiment [2] (cell growth halted by erythromycin, within 2 h) is on record as 10 μg/ml; in experiment [2] (used alone, stationary phase S. aureus, 10^10 CFU/ml) it was 32 μg/ml.
